Experimental data as given in patent publication US12280052B2, “Compositions and methods for the treatment of adenomyosis and rectovaginal endometriosis” (ObsEva S.A., priority 2018, dated 2025).

What was measured:
[1] = tested on: human female patients suffering from adenomyosis; assay: open-label Phase II clinical trial of compound (VI) in adenomyosis, representative patient; format: in vivo; details: for mB&B score: composite score 0-15, baseline 6.0 (Severe); for mB&B score / Change from baseline in EHP-30 score for control and powerlessness / Change from baseline in EHP-30 score for emotional well-being / Change from baseline in EHP-30 score for pain / Change from baseline in EHP-30 score for self-image / Change from baseline in EHP-30 score for social support / Change from baseline in global pelvic pain by NRS / Change from baseline in mB&B score / Change from baseline in uterine volume by MRI / Change from baseline in uterine volume by TVUS / Uterus height by TVUS / Uterus depth by TVUS / Uterus length by TVUS / mB&B score, severity class / EHP-30 Score: Pain (Questions 1-11 of EHP-30) / EHP-30 Score: Social Support (Questions 24-27 of EHP-30) / EHP-30 Score: Self-Image (Questions 28-30 of EHP-30) / EHP-30 Score: Emotional Well-being (Questions 18-23 of EHP-30) / EHP-30 Score: Control and Powerlessness (Questions 12-17 of EHP-30) / Global pelvic pain by numerical rating scale (NRS) / Patient Global Impression of Change since Baseline (PGIC) / Uterus volume by transvaginal ultrasound (TVUS) / Uterus volume by MRI: representative patient; for Uterus height by TVUS: baseline 5.6 cm; for Uterus depth by TVUS: baseline 6.5 cm; for Uterus length by TVUS: baseline 6.7 cm; for mB&B score, severity class: baseline Severe; for EHP-30 Score: Pain (Questions 1-11 of EHP-30): scale 0 (best) to 100 (worst health status), baseline 63.6; for EHP-30 Score: Social Support (Questions 24-27 of EHP-30) / EHP-30 Score: Self-Image (Questions 28-30 of EHP-30) / EHP-30 Score: Emotional Well-being (Questions 18-23 of EHP-30) / EHP-30 Score: Control and Powerlessness (Questions 12-17 of EHP-30): scale 0 (best) to 100 (worst); for EHP-30 Score: Social Support (Questions 24-27 of EHP-30): baseline 43.8; for EHP-30 Score: Self-Image (Questions 28-30 of EHP-30): baseline 50.0; for EHP-30 Score: Emotional Well-being (Questions 18-23 of EHP-30): baseline 66.7; for EHP-30 Score: Control and Powerlessness (Questions 12-17 of EHP-30): baseline 70.8; for Global pelvic pain by numerical rating scale (NRS): scale 0 (no pain) to 10 (worst pain imaginable), baseline 7; for Patient Global Impression of Change since Baseline (PGIC): scale 1 (Very much improved) to 7 (very much worse); for Uterus volume by transvaginal ultrasound (TVUS): volume = l × h × d × 0.523, baseline 128 cm^3; for Uterus volume by MRI: baseline 198
Excerpt: This example describes the results of an open-label, Phase II clinical trial examining the safety and efficacy of the GnRH antagonist, compound (VI) (3-[2-fluoro-5-(2,3-difluoro-6-methoxybenzyloxy)4-methoxyphenyl]-2,4-dioxo-1,2,3,4-tetrahydrothieno [3,4d]pyrimidine-5-carboxylic acid), for treating human female patients suffering from adenomyosis. The study began with a 4-week patient screening period, followed by two consecutive 12-week treatment periods. During the first 12-week treatment period, patients were administered compound (VI) in a single daily dose of 200 mg. During the second 12-week treatment period, patients were administered compound (VI) in a single daily dose of 100 mg. Patients then entered a post-treatment follow-up period during which the effects of compound (VI) were further assessed.
The total duration of this study (from the screening visit to the end-of-study visit) was 40 weeks per subject. The study began with a 4-week screening period evaluating the symptoms of uterine adenomyosis and assessing the volume of each patient's adenomyosis-affected uterus by way of MRI. During this period, the patients received no study drug.
At the start of menstruation, the patients were administered 200 mg of compound (VI), once daily, in the form of the corresponding choline salt. The administration continued over the course of a 12-weel treatment period, referred to as the “initiation phase,” so as to maximize the effect of the treatment. After the first 12-week treatment period, the therapeutic effect of the GnRH antagonist was maintained by administering 100 mg of compound (VI), once daily, over the course of a second 12-week treatment period. This second treatment period was referred to as the “maintenance phase.”
At the end of the maintenance phase (at week 24), the patients entered a 12-week follow-up period without any active treatment.
The primary efficacy endpoint of this study was a change, from baseline to week 24, in volume of the adenomyosis-affected uterus, as measured by MRI. Secondary endpoints under investigation in this study were as follows: • Change from baseline to weeks 12 and 36 in volume of the uterus with adenomyosis measured by MRI • Change from baseline to weeks 12, 24 and 36 in volume of the uterus with adenomyosis measured by TVUS • Change from baseline to weeks 12, 24 and 36 in the largest thickness of the anterior and posterior part of the uterus myometrium (sagittal assessment) • Change from baseline to weeks 12, 24 and 36 in the largest diameter of the junctional zone of the uterine adenomyosis measured by MRI • Presence of blood spots on the MRI images • Change from baseline to weeks 12, 24 and 36 in uterus volume assessed at vaginal examination • Change from baseline to weeks 12, 24 and 36 in uterine tenderness assessed at vaginal examination • Change from baseline to weeks 12, 24 and 36 in dysmenorrhea, pelvic pain and dyspareunia according to the mB&B scale • Change from baseline to weeks 4, 8, 12, 16, 20, 24 and 36 for global pelvic pain assessed over the preceding 4-week period using a Numerical Rating Scale (NRS) with a monthly recall • Change from baseline to weeks 4, 8, 12, 16, 20, 24, 28, 32 and 36 in the mean monthly dyspareunia score defined as the mean of available daily dyspareunia scores over the preceding 4-week period assessed on the Verbal Rating Scale (VRS) dyspareunia scale and on a NRS • Change from baseline to weeks 4, 8, 12, 16, 20 and 24 fin the mean monthly dyschezia score defined as the mean of weekly dyschezia scores over the preceding 4-week period using a NRS • No uterine bleeding (or spotting only), during the 4-week period preceding weeks 4, 8, 12, 16, 20 and 24 using a simplified bleeding scale • Time to amenorrhea • Change from baseline to weeks 12, 24 and 36 in the Endometriosis Health Profile questionnaire (EHP-30) • Patient Global Impression of Change (PGIC) score at weeks 12, 24 and 36 Data Analysis and Statistics […]

[2] = biological target: T1, human GnRH receptor (Homo sapiens, UniProt P30968); assay: affinity for human GnRH receptor; format: binding; details: kind of constant not stated
T1 sequence (P30968 1-328): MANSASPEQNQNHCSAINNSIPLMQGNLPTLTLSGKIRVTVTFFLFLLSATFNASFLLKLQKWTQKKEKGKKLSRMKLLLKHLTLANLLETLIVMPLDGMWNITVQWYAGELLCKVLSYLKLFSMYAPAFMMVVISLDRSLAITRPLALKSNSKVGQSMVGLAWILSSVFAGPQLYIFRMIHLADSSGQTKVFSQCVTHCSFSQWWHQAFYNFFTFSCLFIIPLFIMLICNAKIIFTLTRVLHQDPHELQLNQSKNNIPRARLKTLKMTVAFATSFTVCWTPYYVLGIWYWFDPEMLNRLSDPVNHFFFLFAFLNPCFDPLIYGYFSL

[3] = week 24 (100 mg once daily after 12 weeks of 200 mg)

COc1cc(F)c(-n2c(=O)[nH]c3csc(C(=O)O)c3c2=O)cc1OCc1c(OC)ccc(F)c1F [Compound (VI), 3-[2-fluoro-5-(2,3-difluoro-6-methoxybenzyloxy)4-methoxyphenyl]-2,4-dioxo-1,2,3,4-tetrahydrothieno [3,4d]pyrimidine-5-carboxylic acid]
uterine volume, conclusion in words ([1]; 24 weeks of treatment, 200 mg then 100 mg once daily): sustained reduction in uterine volume | adenomyosis-associated pain, conclusion in words ([1]; 24 weeks of treatment, 200 mg then 100 mg once daily, various metrics): substantial reduction in adenomyosis-associated pain | mB&B score ([1]; week 12 (200 mg once daily)): 2.0 | Change from baseline in EHP-30 score for control and powerlessness ([1]; week 12 (200 mg once daily)): −70.8 | Change from baseline in EHP-30 score for emotional well-being ([1]; week 12 (200 mg once daily)): −66.7 | Change from baseline in EHP-30 score for pain ([1]; week 12 (200 mg once daily)): −63.6 | Change from baseline in EHP-30 score for self-image ([1]; week 12 (200 mg once daily)): −50.0 | Change from baseline in EHP-30 score for social support ([1]; week 12 (200 mg once daily)): −43.8 | Change from baseline in global pelvic pain by NRS ([1]; week 12 (200 mg once daily)): −7 | Change from baseline in mB&B score ([1]; week 12 (200 mg once daily)): −4 | Change from baseline in uterine volume by MRI ([1]; week 12 (200 mg once daily)): −114 cm^3 | Change from baseline in uterine volume by TVUS ([1]; week 12 (200 mg once daily)): −79 cm^3 | Uterus height by TVUS ([1]; week 12 (200 mg once daily)): 4.1 cm | Uterus depth by TVUS ([1]; week 12 (200 mg once daily)): 5.0 cm | Uterus length by TVUS ([1]; week 12 (200 mg once daily)): 4.5 cm | mB&B score, severity class ([1]; week 12 (200 mg once daily)): Mild (Mild (1-2)) | EHP-30 Score: Pain (Questions 1-11 of EHP-30) ([1]; week 12 (200 mg once daily)): 0.0 | EHP-30 Score: Social Support (Questions 24-27 of EHP-30) ([1]; week 12 (200 mg once daily)): 0 | EHP-30 Score: Self-Image (Questions 28-30 of EHP-30) ([1]; week 12 (200 mg once daily)): 0 | EHP-30 Score: Emotional Well-being (Questions 18-23 of EHP-30) ([1]; week 12 (200 mg once daily)): 0 | EHP-30 Score: Control and Powerlessness (Questions 12-17 of EHP-30) ([1]; week 12 (200 mg once daily)): 0 | Global pelvic pain by numerical rating scale (NRS) ([1]; week 12 (200 mg once daily)): 0 | Patient Global Impression of Change since Baseline (PGIC) ([1]; week 12 (200 mg once daily)): 1—Very | Uterus volume by transvaginal ultrasound (TVUS) ([1]; week 12 (200 mg once daily)): 48 cm^3 | Uterus volume by MRI ([1]; week 12 (end of initiation phase, 200 mg once daily as choline salt)): 84 cm^3 | mB&B score [1, 3]: 2.0 | Change from baseline in EHP-30 score for control and powerlessness [1, 3]: −70.8 | Change from baseline in EHP-30 score for emotional well-being [1, 3]: −66.7 | Change from baseline in EHP-30 score for pain [1, 3]: −56.8 | Change from baseline in EHP-30 score for self-image [1, 3]: −50.0 | Change from baseline in EHP-30 score for social support [1, 3]: −43.8 | Change from baseline in global pelvic pain by NRS [1, 3]: −6 | Change from baseline in mB&B score [1, 3]: −4 | Change from baseline in uterine volume by MRI [1, 3]: −123 cm^3 | Change from baseline in uterine volume by TVUS [1, 3]: −79 cm^3 | Uterus height by TVUS [1, 3]: 4.0 cm | Uterus depth by TVUS [1, 3]: 5.0 cm | Uterus length by TVUS [1, 3]: 4.6 cm | mB&B score, severity class [1, 3]: Mild (Mild (1-2)) | EHP-30 Score: Pain (Questions 1-11 of EHP-30) [1, 3]: 6.8 | EHP-30 Score: Social Support (Questions 24-27 of EHP-30) [1, 3]: 0 | EHP-30 Score: Self-Image (Questions 28-30 of EHP-30) [1, 3]: 0 | EHP-30 Score: Emotional Well-being (Questions 18-23 of EHP-30) [1, 3]: 0 | EHP-30 Score: Control and Powerlessness (Questions 12-17 of EHP-30) [1, 3]: 0 | Global pelvic pain by numerical rating scale (NRS) [1, 3]: 1 | Patient Global Impression of Change since Baseline (PGIC) [1, 3]: 1—Very | Uterus volume by transvaginal ultrasound (TVUS) [1, 3]: 48 cm^3 | Uterus volume by MRI ([1]; week 24 (end of maintenance phase, 100 mg once daily after 12 weeks of 200 mg)): 75 cm^3 | affinity for human GnRH receptor [2]: 27.4 nM
